Like-named read-outs stand apart in the source and are kept apart here.
Columns and labels:
MAT2A homodimer = target: T1, MAT2A homodimer (Homo sapiens, UniProt P31153); experiment: Biochemical assay: inhibition of MAT2A (phosphate release, PiColorLock Gold); details: MAT2A IC50 score; read-out: Enzyme Inhibition (Example 275)
T1 construct: inferred from Ni sepharose purification and imidazole elution; made in house; host or cells: Sf9 insect cells, recombinant baculovirus (Bac to Bac, pFASTBAC1)
T1 sequence (P31153 whole entry): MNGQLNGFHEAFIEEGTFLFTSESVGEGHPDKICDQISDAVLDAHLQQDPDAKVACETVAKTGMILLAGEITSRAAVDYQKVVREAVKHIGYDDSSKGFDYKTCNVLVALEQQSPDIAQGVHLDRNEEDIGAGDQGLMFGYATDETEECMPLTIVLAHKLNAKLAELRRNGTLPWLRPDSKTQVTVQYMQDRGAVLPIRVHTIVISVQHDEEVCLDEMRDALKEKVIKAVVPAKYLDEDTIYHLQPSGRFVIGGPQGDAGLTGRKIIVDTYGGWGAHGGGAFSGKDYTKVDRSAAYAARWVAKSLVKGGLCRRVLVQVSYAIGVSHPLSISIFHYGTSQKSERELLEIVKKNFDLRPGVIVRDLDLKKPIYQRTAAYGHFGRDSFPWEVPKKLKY
Procedure, shortened: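 Phosphate formed alongside SAM was read with PiColorLock Gold and quantified against a potassium phosphate standard curve. Reactions ran 60 min at 25 °C after adding a substrate mix of 500 μM ATP and 400 μM L-methionine (mix concentrations). Compound had first been preincubated 60 min with recombinant Sf9-derived MAT2A homodimer ([…]) in pH 8.0 Tris buffer containing MgCl2, KCl, EDTA and BSA.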

[1] = test system: SAM in HCT116 human colon carcinoma cell line engineered to delete the MTAP gene (MTAP −/−); experiment: Cellular assay of target engagement (SAM) by LC-MS/MS; assay type: cell-based; details: IC50 score, read-out: Cell 72 h SAM Inhibition (MTAP −/−; Example 276)
Procedure, shortened: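 Intracellular SAM, the MAT2A product, was measured by quantitative LC-MS/MS against a d3-SAM standard in methanol/acetic acid extracts. Extracts came from HCT116 MTAP −/− cells exposed for 72 h at 37 °C to a ten-point, threefold dilution series of compound, added one day after seeding.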

HCT116 MTAP−/− = experiment: Inhibition of cellular proliferation (Cell Titer Glo), HCT116 MTAP−/−; assay type: cell-based, human; details: 4 days, IC50 score, read-out: 4 Day Relative Growth Inhibition (MTAP −/−; Example 277)
Procedure, shortened: (§1)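 Proliferation was read as ATP luminescence (Cell Titer Glo) after a 4-day, 37 °C exposure of HCT116 cells differing only in MTAP deletion status. Dosing was 10 points, 3-fold steps, added 24 h post-plating; signal minus blank, relative to 0.2% DMSO control wells, was plotted against log molar concentration.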

HCT116 MTAP+/+ = experiment: Inhibition of cellular proliferation (Cell Titer Glo), HCT116 MTAP+/+; assay type: cell-based, human; details: 4 days, IC50 score, read-out: 4 Day Relative Growth Inhibition (MTAP +/+; Example 277)
Procedure, shortened: as §1

Row | Structure (SMILES) | IC50 (MAT2A homodimer) [nM] | IC50 ([1]; Homo sapiens, HCT-116, 72 h) [nM] | IC50 (HCT116 MTAP−/−; Homo sapiens, HCT-116, 96 h) [nM] | IC50 (HCT116 MTAP+/+; Homo sapiens, HCT-116, 96 h) [nM] | IC50 ([1]; 72 h) [nM] | IC50 (HCT116 MTAP−/−) [nM] | IC50 (HCT116 MTAP+/+) [nM]
1 | CCNc1ncc2cn(-c3ccc4nn(C)cc4c3)c(=O)c(-c3ccc(Cl)cc3)c2n1 [Example 169, 8-(4-chlorophenyl)-2-(ethylamino)-6-(2-methyl-2H-indazol-5-yl)pyrido[4,3-d]pyrimidin-7(6H)-one] | < 100 | < 100 | < 100 | > 10000 |  |  | 
2 | CCOc1cnc2cn(-c3ccc4nn(C)cc4c3)c(=O)c(-c3ccc(OC(F)F)nc3)c2n1 [Example 149-A] | < 100 | < 100 | 100 to 10000 | 100 to 10000 |  |  | 
3 | Cn1cc2cc(-n3cc4ccc(OCC(F)(F)F)nc4c(-c4ccc(C5CC5)nc4)c3=O)ccc2n1 [Example 113-A] | < 100 | < 100 | < 100 | 100 to 10000 |  |  | 
4 | COc1ccc(-n2cc3cnc(NCC(F)(F)F)nc3c(-c3ccc(-c4nc[nH]n4)cc3)c2=O)cc1 [Example 206, 8-(4-(H-1,2,4-triazol-3-yl)phenyl)-6-(4-methoxyphenyl)-2-(2,2,2-trifluoroethylamino)pyrido[4,3-d]pyrimidin-7(6H)-one] | < 100 | 100 to 1000 | 100 to 10000 | 100 to 10000 |  |  | 
5 | Cn1cc2cc(-n3cc4ccc(NCC(F)(F)F)nc4c(-c4ccc(OC(F)(F)F)cc4)c3=O)ccc2n1 [Example 211, 6-(2-methyl-2H-indazol-5-yl)-2-((2,2,2-trifluoroethyl)amino)-8-(4-(trifluoromethoxy)phenyl)-1,6-naphthyridin-7(6H)-one] | < 100 | < 100 | < 100 | > 10000 |  |  | 
6 | CCOc1ccc2cn(-c3ccc4nn(C)cc4c3)c(=O)c(-c3ccc(OC(F)(F)F)cc3)c2n1 [Example 217, 2-ethoxy-6-(2-methyl-2H-indazol-5-yl)-8-(4-(trifluoromethoxy)phenyl)-1,6-naphthyridin-7(6H)-one] | < 100 | < 100 | 100 to 10000 | > 10000 |  |  | 
7 | COc1ccc(-c2c(=O)n(-c3ccc4c(c3)CCO4)cc3cnc(NCC(F)(F)F)nc23)cc1 [Example 147, 6-(2,3-dihydrobenzofuran-5-yl)-8-(4-methoxyphenyl)-2-((2,2,2-trifluoroethyl)amino)pyrido[4,3-d]pyrimidin-7(6H)-one] | < 100 | 100 to 1000 | 100 to 10000 | > 10000 |  |  | 
8 | O=c1c(-c2ccc(C3CC3)cc2)c2nc(NCC(F)(F)F)ncc2cn1-c1ccc2ncccc2c1 [Example 168, 8-(4-cyclopropylphenyl)-6-(quinolin-6-yl)-2-((2,2,2-trifluoroethyl)amino)pyrido[4,3-d]pyrimidin-7(6)-one] | < 100 | < 100 | < 100 | > 10000 |  |  | 
9 | Cc1nc2ccc(-n3cc4cnc(NCC(F)(F)F)nc4c(-c4ccc(OC(F)F)cc4)c3=O)cc2s1 [Example 150, 8-(4-(difluoromethoxy)phenyl)-6-(2-methylbenzo[d]thiazol-6-yl)-2-((2,2,2-trifluoroethyl)amino)pyrido[4,3-d]pyrimidin-7(6H)-one] | < 100 | < 100 | 100 to 10000 | 100 to 10000 |  |  | 
10 | CCSc1ccc2cn(-c3ccc4nn(C)cc4c3)c(=O)c(-c3ccc(Cl)cc3)c2n1 [Example 259, 8-(4-chlorophenyl)-2-(ethylthio)-6-(2-methyl-2H-indazol-5-yl)-1,6-naphthyridin-7(6H)-one] | < 100 | < 100 | < 100 | > 10000 |  |  | 
11 | Cn1cc2cc(-n3cc4ccc(OCC(F)(F)F)nc4c(-c4ccc(OC(F)F)cc4)c3=O)ccc2n1 [Example 256, 8-(4-(difluoromethoxy)phenyl)-6-(2-methyl-2H-indazol-5-yl)-2-(2,2,2-trifluoroethoxy)-1,6-naphthyridin-7(6H)-one] | < 100 | < 100 | 100 to 10000 | 100 to 10000 |  |  | 
12 | CCOc1nc2c(-c3ccc(Cl)cc3)c(=O)n(-c3ccc4nn(C)cc4c3)cc2cc1C [Example 134-A] | < 100 | < 100 | < 100 | > 10000 |  |  | 
13 | CCOc1ccc2cn(-c3ccc(=O)n(CCS(C)(=O)=O)c3)c(=O)c(-c3ccc(OC(F)F)cc3)c2n1 [Example 107-A] | < 100 |  |  |  | < 100 | < 100 | 100 to 10000
14 | O=c1c(-c2ccc(OC(F)F)cc2)c2nc(NCC(F)(F)F)ncc2cn1-c1ccc2c(c1)OCCO2 [Example 178, 8-(4-(difluoromethoxy)phenyl)-6-(2,3-dihydrobenzo[b][1,4]dioxin-6-yl)-2-((2,2,2-trifluoroethyl)amino)pyrido[4,3-d]pyrimidin-7(6H)-one] | < 100 | < 100 | 100 to 10000 | 100 to 10000 |  |  | 
15 | CCOc1ccc2cn(-c3ccc4ncncc4c3)c(=O)c(-c3ccc(Cl)cc3)c2n1 [Example 246, 8-(4-chlorophenyl)-2-ethoxy-6-(quinazolin-6-yl)-1,6-naphthyridin-7(6H)-one] | < 100 | 100 to 1000 | 100 to 10000 | 100 to 10000 |  |  | 
16 | Cc1nc2ccc(-n3cc4cnc(NCC(F)(F)F)nc4c(-c4ccc(Cl)cc4)c3=O)cc2n1C [Example 124, 8-(4-chlorophenyl)-6-(1,2-dimethyl-1H-benzo[d]imidazol-6-yl)-2-((2,2,2-trifluoroethyl)amino)pyrido[4,3-d]pyrimidin-7(6H)-one] | < 100 | < 100 | < 100 | > 10000 |  |  | 
17 | O=c1c(-c2ccc(Cl)cc2)c2nc(NCC(F)(F)F)ncc2cn1-c1ccc2ncccc2c1 [Example 139, 8-(4-chlorophenyl)-6-(quinolin-6-yl)-2-((2,2,2-trifluoroethyl)amino)pyrido[4,3-d]pyrimidin-7(6)-one] | < 100 | < 100 | 100 to 10000 | > 10000 |  |  | 
18 | CCOc1ccc2cn(-c3ccc(OC)cc3)c(=O)c(-c3ccc(OC(F)(F)F)nc3)c2n1 [Example 121-A] | < 100 | < 100 | 100 to 10000 | 100 to 10000 |  |  | 
19 | CCOc1cnc2cn(-c3ccc(OC)cc3)c(=O)c(-c3ccc(OC(F)F)cc3)c2n1 [Example 150-A] | < 100 | < 100 | 100 to 10000 | 100 to 10000 |  |  | 
20 | Cn1cc2cc(-n3cc4cnc(NCC(F)(F)F)nc4c(-c4ccc(Cl)cc4)c3=O)ccc2n1 [Example 123, 8-(4-chlorophenyl)-6-(2-methyl-2H-indazol-5-yl)-2-((2,2,2-trifluoroethyl)amino)pyrido[4,3-d]pyrimidin-7(6H)-one] | < 100 | < 100 | < 100 | 100 to 10000 |  |  | 
21 | Cn1cc2cc(-n3cc4ccc(NCC(F)(F)F)nc4c(-c4ccc(C(F)(F)F)cc4)c3=O)ccc2n1 [Example 213, 6-(2-methyl-2H-indazol-5-yl)-2-((2,2,2-trifluoroethyl)amino)-8-(4-(trifluoromethyl)phenyl)-1,6-naphthyridin-7(6H)-one] | < 100 | < 100 | < 100 | > 10000 |  |  | 
22 | COc1ccc(-c2c(=O)n(-c3ccc4nccnc4c3)cc3cnc(NCC(F)(F)F)nc23)cc1 [Example 144, 8-(4-methoxyphenyl)-6-(quinoxalin-6-yl)-2-((2,2,2-trifluoroethyl)amino)pyrido[4,3-d]pyrimidin-7(6H)-one] | < 100 | 100 to 1000 | 100 to 10000 | > 10000 |  |  | 
